Source: patent US5017557A, “Treatment of infertility with somatotrophin releasing factor” (Industria Farmaceutica Serono S.p.A., priority 1987, dated 1991)
“Also recorded” adds a separate entry of the source. No end group written: not given here.

Columns and labels:
[1] = system: Sertoli cells; experiment: GRF binding to isolated Sertoli cells; design: species or system rat
Description: Sertoli cells were isolated from the testicles of 14 day old rats, according to the techniques already decribed (A. Fabbri, et al.--Opiate receptors are present in the rat testis: Identification and localization on Sertoli cells. Endocrinology 117: 2544-2546, 1985). Briefly, the procedure consisted in the separation of the tubular compartment from the Leydig cells by means of enzymatic dispersion with collagenase and subsequent treatment of the tubules with trypsin and collagenase. The separated cells were applied to 48 well Costar plates at the concentration of approximately 100,000 cells per well. The cells were allowed to adhere to the bottom of the wells for 24 hours in a metabolic incubator at 34° C., in 95% O2 /5% CO2. The cells were then washed and incubated in TC 199 10 mM TRIS medium in the presence of iodine labelled GRF-44 at the concentration of 10^-11 M for 60 minutes at 4° C. in the presence or absence of 10^-6 M cold (unlabelled) human GRF-44. Then the cells were washed 3 times with PBS+0.5% BSA at 4° C.; the radio-activity bound to the cells was then solubilized with 0.1N NaOH and read in a gammacounter.

[2] = system: serum levels of HGH, Sm-C, prolactin, LH, FSH; settings: intravenous administration, normal subjects during the menstrual cycle; cited from earlier work
[3] = system: follicle in maturative growth; experiment: echographic monitoring of follicle-genesis (volume/diameter of the follicle in maturative growth) in women; assay type: in vivo, human (women)
Experimental: In the clinical trials reported below, GRF-29 was used in the form of lyophilized ampoules containing 100 or 150 micrograms (mcg) of GRF and 10 milligrams (mg) of mannitol as excipient. The lyophilized substance, dissolved in 2 ml of physiologic saline, was administered by the intravenous route.
In a clinical study carried out in conformity with the present invention women, both with normal follicle-genesis (as control) and follicle-genesisdeficiency were treated.
The study consisted in echographic and hormonal monitoring of follicle-genesis during which the volume of the follicle in maturative growth and the plasma levels of 17-beta estradiol and 17-alpha OH progesterone were recorded.
In the controls with normal follicle-genesis, 2 monitorings of the follicle-genesis were carried out in accordance with the above mentioned procedures: the first verified the basal situation and the second was under administration of GRF-29 at the dosage of 100 or 150 mcg/day i.v. from the 1st to the 7th day of the cycle.
In patients with follicle-genesis deficiency, monitorings of the follicle-genesis were carried out: without any medicinal administration (as control); under administration of GRF-29 at the dosage of 100 or 150 mcg/day i.v. from the 1st to the 7th day of the cycle; under administration of FSH (METRODIN® at the dosage of 75 or 150 I.U./day i.m. for 7 days; under the combined administration of FSH+GRF at the above dosage.

[4] = system: spermatozoa; experiment: treatment of male infertility: seminal parameters; assay type: in vivo, human (patients); settings: oligospermia or azoospermia; 5 mcg/kg s.c. 3 times a week for three months; controls at 45 days and 3 months
Experimental: Patients suffering spermatogenesis deficiences of various entity with oligospermia or azoospermia, selected according to the criteria of the protocol, were treated for a period of three months with GRF-29 at the dosage of 5 mcg/kg s.c. 3 times a week.
The first control was carried out after 45 days from commencement of therapy, and the second control after 3 months.

[5] = system: anti-GRF obtained in the rabbit (Amersham) against human GRF-44; settings: rabbit anti-serum against human GRF-44 (Amersham); cited from earlier work

| Substance | specific binding of GRF to Sertoli cells ([1]; iodine labelled GRF-44 10^-11 M, 60 minutes at 4° C., with or without 10^-6 M cold human GRF-44) | specific binding of GRF to Sertoli cells ([1]; recalculated per mg of protein) | effect on serum hormone levels [2] | observation of the cycle (follicular activation, dominance, ovulation, menstrual flow) ([3]; Case 1, normal follicle-genesis, GRF-29 100 mcg/day i.v.) | observation of the cycle (follicular activation, dominance, ovulation, menstrual flow) ([3]; Case 3, patient, GRF-29 150 mcg/day i.v.) | observation of the cycle (follicular activation, dominance, ovulation, menstrual flow) ([3]; Case 4, patient, GRF-29 100 mcg/day i.v.) | observation of the cycle (follicular activation, dominance, ovulation, menstrual flow) ([3]; Case 6, patient, GRF-29 150 mcg/day i.v. day 1-7) | observation of the cycle (follicular activation, dominance, ovulation, menstrual flow) ([3]; Case 7, patient, GRF-29 150 mcg/day i.v. day 1-7) | overall effect on follicle growth and ovulation ([3]; administration during the first phase of the cycle, all cases) | seminal parameters (number of spermatozoa, motility) [4] | Cross-reactivity [5] |
| --- | --- | --- | --- | --- | --- | --- | --- | --- | --- | --- | --- |
| GRF: Somatotrophin releasing factor; measured as immunoreactivity by RIA, binding done with iodine labelled human GRF-44 | 2.5 fmoles of peptide/70 mcg of protein | about 40 fmoles/mg of protein | produces an increase in serum levels of HGH and Sm-C but not of prolactin, LH or FSH |  |  |  |  |  |  |  |  |
| GRF-29: biologically active fragment of Somatotrophin releasing factor; lyophilized ampoules of 100 or 150 mcg with 10 mg mannitol (YADAIFTNSYRKVLGQLSARKLLQDIMSR; ends and bridges not checked; UniProt P01286 32-60, looked up, fragment) |  |  |  | presence of follicular activation and evidence of a dominant follicle between the 13th and the 14th day of the cycle, with ovulation between the 15th and 16th day | presence of follicular activation, dominance and dehiscence | absence of ovulation but follicle-genesis was activated; also recorded: Menstrual flow occurred spontaneously on the 33rd day | good ovarian activation was observed, followed by the growth of two follicles (within a micropolycistic ovary, as stated above), which presented an involution around the 17th day of the cycle | presence of echographic notes of ovarian activation, but absence of follicular dominance | facilitates follicle growth and anticipates, or even induces, ovulation (dehiscence) | improvement of the seminal parameters, and especially an increase in the number of spermatozoa and their motility | 100% |
